From patent US11422091B2, “Turn-on near infrared fluorescent probes for imaging lysosomal ROS in live cells at subcellular resolution” (University of Massachusetts, priority 2015, dated 2022)

Experiments:
[1] = test system: Bovine Aortic Endothelial Cells (BAEC); assay: Co-localization with Mito Tracker Green and Lyso Tracker Blue, confocal imaging in BAEC; assay type: cell-based; conditions: BAEC preloaded with TBHP (100 μM) 30 min, RTMI (10 μM) 30 min
Protocol: Confocal fluorescence imaging studies were performed with a Zeiss LSM 710 laser scanning microscope.

[2] = Fluorescent responses of RTMI to various ROS in PBS
Protocol: Fresh solutions of L-ascorbic acid (50 mM), hydrogen peroxide (100 mM), tert-butyl hydrogen peroxide (TBHP, 100 mM), 3-morpholinosydnonimine (SIN-1, 5 mM), glutathione reduced form (GSH, 10 mM) and glutathione oxidized form (GSSG, 10 mM) were prepared with distilled water. […]
The hydroxyl and butoxyl radicals were generated in situ by reacting hydrogen peroxide or TBHP with Fe^2+. Fresh 10 mM Fe^2+ was made in 0.1 M HCl solution using ferrous ammonium sulfate [Fe(NH4)2(SO4)2.6H2O]. A 10 μM RTMI solution, in PBS, containing 10 μM Fe^2+ was made and either hydrogen peroxide or TBHP was added to this solution to generate a 100 μM concentration.
Fluorescence spectra were recorded on a Perkin-Elmer LS55 luminescence spectrometer at 293 K. The excitation wavelengths and filters used were indicated in the figures. The pH measurements were carried out on a Corning pH meter equipped with a Sigma-Adrich micro combination electrode calibrated with standard buffer solution.
Fluorescent responses of RTMI (100 μM) to various ROS were monitored in PBS, containing 1% methanol. Various reactive oxygen species were added to the 100 μM RTMI solutions, at a 5:1 molar ratio to RTMI, and the fluorescence intensity was recorded after 5 min of incubation at 25° C. Superoxide (O2.^−) was added as solid KO2. Stock solution solutions of hydrogen peroxide, tert-butyl hydrogen peroxide (TBHP), hypochlorite, 3-morpholinosydnonimine (SIN-1), glutathione (GSH) and 1,4-hydroquinone were made and then added to the RTMI solution, to generate a 500 μM final concentration. 3-(aminopropyl)-1-hydroxy-3-isopropyl-2-oxo-1-triazene (NOC-5, 1 mM) was made as a 10 mM sodium hydroxide solution and then added to the RTMI solution, to generate a 500 μM final concentration. The hydroxyl and butoxyl radicals were generated in situ by reacting hydrogen peroxide or TBHP with Fe^2+. A 100 μM RTMI solution, in PBS, containing 500 μM Fe^2 was made and either hydrogen peroxide or TBHP was added to this solution to generate a 500 μM concentration.

[3] = Photo stability of the sensor; assay type: physicochemical
BAEC cells = assay: Detection of ROS in live BAEC cells by fluorescence microscopy; assay type: cell-based, bovine; conditions: HO., H2O2, KO2, TBO, TBHP, peroxynitrite or ox-LDL, RTMI 10 μM
Protocol: In one embodiment, the RTMI may be used to analyze ROS species within living systems. The RTMI sensor solution was applied to live cells and analyzed under a fluorescence microscope. Each of the various ROS (HO., H2O2, KO2, TBO, TBHP, peroxynitrite) or ROS inducer (ox-LDL) that were present combined with the RTMI sensor were incubated with BAEC cells.
The sensor RTMI was dissolved in DMF at a concentration of 10 mM. 1 μL of the DMF solution was added to cell medium without fetal bovine serum. Cell culture medium was removed from the cells in the culture dish and replaced with the fresh medium containing the sensor.
Oxidized low density lipoprotein (Ox-LDL, a stimulation factor for ROS production in cells) was dissolved in water solution and the final concentration in cell media was 20 μg/mL.
Commercial H2O2 (30% wt, density of 1.1 g/ml, MW 34.02 g/mol) was diluted with deionized water to make a fresh solution of 100 mM. 1 μL of the fresh solution was added to cell media to generate a final concentration of 100 μM.
SIN1 (a peroxyitrite donor) was dissolved in deionized water to the concentration of 10 mM; 10 μL of this solution added to cell media to generate a final concentration of 100 μM.
Fe^2+ was freshly made from ferrous ammonium sulfate (MW 392.15 g/mol) dissolved in 0.1 M HCl (DI water solution) to generate a fresh solution of 100 mM. […]

[4] = RTMI 100 μM in PBS, 1% methanol, 500 μM, 5 min, 25° C.

fluorescence peak upon reacting with ROS ([2]; in physiological buffer, near IR region): 705 nm | photo stability [3]: very good photo stability
SMILES: CCCN1c2ccccc2C(C)(C)C1/C=C/C1=C2Oc3cc(O)ccc3C=C2CCC1 (stereo not drawn) [RTMI]
subcellular location of ROS detected by the sensor [1]: in lysosomes | fluorescence response to TBHP [2, 4]: turn-on | fluorescence response to hydrogen peroxide [2, 4]: turn-on | fluorescence response to peroxynitrite (generated by SIH 1) [2, 4]: turn-on | fluorescence response to superoxide (O2.-) ([2]; RTMI 100 μM in PBS, 1% methanol, solid KO2, 5:1 molar ratio, 5 min, 25° C.): turn-on | fluorescence response to butoxyl radical (TBO) ([2]; RTMI 100 μM in PBS, generated in situ from TBHP 500 μM and Fe2+ 500 μM): turn-on | fluorescence response to hydroxyl radical ([2]; RTMI 100 μM in PBS, generated in situ from hydrogen peroxide 500 μM and Fe2+ 500 μM): turn-on | fluorescence response to Fe2+ ([2]; beyond baseline fluorescence): does not respond | fluorescence response to GSH ([2]; beyond baseline fluorescence): does not respond | fluorescence response to GSSG ([2]; beyond baseline fluorescence): does not respond | fluorescence response to nitrite ([2]; beyond baseline fluorescence): does not respond | fluorescence response to nitric oxide radical ([2]; beyond baseline fluorescence, NOC-5): does not respond | fluorescence emission in the near IR region of cells treated with ROS or ROS inducers, compared to the control (BAEC cells): strongly fluorescence emission signals
